The source of these data is ChEMBL document CHEMBL5678818, “Discovery of potent SOS1 inhibitors that block RAS activation via disruption of the RAS-SOS1 interaction” (Proc Natl Acad Sci U S A, 2019).

Assay [1] addresses Calcium/calmodulin-dependent protein kinase type 1D (Homo sapiens) (UniProt Q8IU85). As to the kind of experiment: Inhibition of CAMK1D (unknown origin) assessed as residual activity at 1000 nM by KINOMEscan analysis relative to control.
Assay [2] deals with Cyclin-dependent kinase-like 3 (Homo sapiens) (UniProt Q8IVW4). As to the kind of experiment: Inhibition of CDKL3 (unknown origin) assessed as residual activity at 1000 nM by KINOMEscan analysis relative to control.
Chain of Cyclin-dependent kinase-like 3 (Homo sapiens) (Q8IVW4 whole entry, looked up): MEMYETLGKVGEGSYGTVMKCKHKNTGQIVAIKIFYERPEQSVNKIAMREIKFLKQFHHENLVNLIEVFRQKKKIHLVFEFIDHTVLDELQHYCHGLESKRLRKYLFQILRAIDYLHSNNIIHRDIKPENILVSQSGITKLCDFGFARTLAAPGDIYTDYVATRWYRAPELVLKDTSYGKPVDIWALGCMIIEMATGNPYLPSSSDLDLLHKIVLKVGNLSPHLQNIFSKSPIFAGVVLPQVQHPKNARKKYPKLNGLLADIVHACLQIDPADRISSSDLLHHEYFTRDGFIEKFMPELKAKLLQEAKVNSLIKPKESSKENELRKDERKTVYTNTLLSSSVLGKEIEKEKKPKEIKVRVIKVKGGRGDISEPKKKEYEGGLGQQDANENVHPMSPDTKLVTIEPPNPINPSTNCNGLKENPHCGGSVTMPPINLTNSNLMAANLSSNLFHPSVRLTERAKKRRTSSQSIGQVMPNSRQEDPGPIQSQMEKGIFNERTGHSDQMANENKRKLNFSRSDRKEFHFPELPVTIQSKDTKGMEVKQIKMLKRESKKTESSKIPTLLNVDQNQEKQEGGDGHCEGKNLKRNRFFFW
The target of assay [3] is T1, Serine/threonine-protein kinase Chk1 (Homo sapiens) (UniProt O14757).
T1 sequence (whole entry): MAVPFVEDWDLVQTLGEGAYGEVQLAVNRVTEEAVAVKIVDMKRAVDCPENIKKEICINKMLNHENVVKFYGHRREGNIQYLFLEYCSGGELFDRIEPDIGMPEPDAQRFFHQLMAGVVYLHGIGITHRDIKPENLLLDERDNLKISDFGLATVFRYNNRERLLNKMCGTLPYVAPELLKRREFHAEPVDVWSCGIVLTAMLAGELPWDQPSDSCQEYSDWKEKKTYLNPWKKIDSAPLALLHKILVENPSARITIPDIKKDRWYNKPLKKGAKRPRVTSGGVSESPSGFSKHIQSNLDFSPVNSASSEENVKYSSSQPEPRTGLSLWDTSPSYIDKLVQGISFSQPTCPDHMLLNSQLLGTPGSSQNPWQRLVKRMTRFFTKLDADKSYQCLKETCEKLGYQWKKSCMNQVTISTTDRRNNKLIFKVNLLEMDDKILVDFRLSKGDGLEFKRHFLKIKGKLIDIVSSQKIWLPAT
As to the kind of experiment: Inhibition of CHEK1 (unknown origin) assessed as residual activity at 1000 nM by KINOMEscan analysis relative to control.

For assay [4], the target named is Epithelial discoidin domain-containing receptor 1 (Homo sapiens) (UniProt Q08345). As to the kind of experiment: Inhibition of DDR1 (unknown origin) assessed as residual activity at 1000 nM by KINOMEscan analysis relative to control.
Chain of Epithelial discoidin domain-containing receptor 1 (Homo sapiens) (Q08345 whole entry, the tested form may be a part): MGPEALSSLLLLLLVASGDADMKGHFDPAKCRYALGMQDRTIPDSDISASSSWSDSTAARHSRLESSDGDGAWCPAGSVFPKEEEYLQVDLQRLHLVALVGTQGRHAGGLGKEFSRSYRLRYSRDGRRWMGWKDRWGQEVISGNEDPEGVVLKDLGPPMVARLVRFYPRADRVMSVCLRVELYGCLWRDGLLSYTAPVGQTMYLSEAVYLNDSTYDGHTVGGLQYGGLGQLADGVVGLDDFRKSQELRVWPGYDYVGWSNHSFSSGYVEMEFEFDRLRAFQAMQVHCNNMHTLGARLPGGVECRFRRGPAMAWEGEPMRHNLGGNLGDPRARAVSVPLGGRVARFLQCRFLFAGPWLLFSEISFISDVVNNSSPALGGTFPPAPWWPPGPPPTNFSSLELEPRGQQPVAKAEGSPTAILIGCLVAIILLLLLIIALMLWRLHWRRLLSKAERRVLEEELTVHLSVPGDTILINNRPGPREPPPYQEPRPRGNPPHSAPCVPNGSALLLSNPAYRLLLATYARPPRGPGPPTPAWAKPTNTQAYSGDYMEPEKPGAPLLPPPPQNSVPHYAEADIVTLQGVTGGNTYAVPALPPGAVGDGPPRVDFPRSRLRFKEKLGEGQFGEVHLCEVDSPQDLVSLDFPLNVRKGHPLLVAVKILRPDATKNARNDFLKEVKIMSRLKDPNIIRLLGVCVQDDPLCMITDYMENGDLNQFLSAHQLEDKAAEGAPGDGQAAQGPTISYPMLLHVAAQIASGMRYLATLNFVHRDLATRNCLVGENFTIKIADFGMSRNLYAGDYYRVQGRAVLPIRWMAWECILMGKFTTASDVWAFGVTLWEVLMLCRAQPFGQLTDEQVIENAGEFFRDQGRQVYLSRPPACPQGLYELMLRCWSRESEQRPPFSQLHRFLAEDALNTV
Assay [5] deals with T2, Mitogen-activated protein kinase kinase kinase 3 (Homo sapiens) (UniProt Q99759).
T2 sequence (whole entry): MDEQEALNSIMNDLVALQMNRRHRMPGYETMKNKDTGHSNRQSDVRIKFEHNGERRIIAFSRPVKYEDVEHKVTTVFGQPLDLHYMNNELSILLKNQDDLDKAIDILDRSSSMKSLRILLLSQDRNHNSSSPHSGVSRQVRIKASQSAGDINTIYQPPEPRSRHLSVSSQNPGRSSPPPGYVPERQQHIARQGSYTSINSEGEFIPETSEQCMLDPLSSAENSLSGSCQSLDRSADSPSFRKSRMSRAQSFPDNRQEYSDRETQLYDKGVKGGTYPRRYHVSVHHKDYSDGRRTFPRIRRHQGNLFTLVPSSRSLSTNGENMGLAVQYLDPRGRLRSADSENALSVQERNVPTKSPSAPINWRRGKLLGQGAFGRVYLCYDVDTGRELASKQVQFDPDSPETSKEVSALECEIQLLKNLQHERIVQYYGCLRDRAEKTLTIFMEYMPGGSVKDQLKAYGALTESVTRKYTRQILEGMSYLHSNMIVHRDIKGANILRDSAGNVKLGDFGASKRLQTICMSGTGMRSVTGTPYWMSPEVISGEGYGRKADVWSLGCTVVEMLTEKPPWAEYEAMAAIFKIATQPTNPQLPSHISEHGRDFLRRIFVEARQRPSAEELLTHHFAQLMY
As to the kind of experiment: Inhibition of MAP3K3 (unknown origin) assessed as residual activity at 1000 nM by KINOMEscan analysis relative to control.

Assay [6] has as its target T3, Phosphatidylinositol 4,5-bisphosphate 3-kinase catalytic subunit delta isoform (Homo sapiens) (UniProt O00329).
T3 sequence (whole entry): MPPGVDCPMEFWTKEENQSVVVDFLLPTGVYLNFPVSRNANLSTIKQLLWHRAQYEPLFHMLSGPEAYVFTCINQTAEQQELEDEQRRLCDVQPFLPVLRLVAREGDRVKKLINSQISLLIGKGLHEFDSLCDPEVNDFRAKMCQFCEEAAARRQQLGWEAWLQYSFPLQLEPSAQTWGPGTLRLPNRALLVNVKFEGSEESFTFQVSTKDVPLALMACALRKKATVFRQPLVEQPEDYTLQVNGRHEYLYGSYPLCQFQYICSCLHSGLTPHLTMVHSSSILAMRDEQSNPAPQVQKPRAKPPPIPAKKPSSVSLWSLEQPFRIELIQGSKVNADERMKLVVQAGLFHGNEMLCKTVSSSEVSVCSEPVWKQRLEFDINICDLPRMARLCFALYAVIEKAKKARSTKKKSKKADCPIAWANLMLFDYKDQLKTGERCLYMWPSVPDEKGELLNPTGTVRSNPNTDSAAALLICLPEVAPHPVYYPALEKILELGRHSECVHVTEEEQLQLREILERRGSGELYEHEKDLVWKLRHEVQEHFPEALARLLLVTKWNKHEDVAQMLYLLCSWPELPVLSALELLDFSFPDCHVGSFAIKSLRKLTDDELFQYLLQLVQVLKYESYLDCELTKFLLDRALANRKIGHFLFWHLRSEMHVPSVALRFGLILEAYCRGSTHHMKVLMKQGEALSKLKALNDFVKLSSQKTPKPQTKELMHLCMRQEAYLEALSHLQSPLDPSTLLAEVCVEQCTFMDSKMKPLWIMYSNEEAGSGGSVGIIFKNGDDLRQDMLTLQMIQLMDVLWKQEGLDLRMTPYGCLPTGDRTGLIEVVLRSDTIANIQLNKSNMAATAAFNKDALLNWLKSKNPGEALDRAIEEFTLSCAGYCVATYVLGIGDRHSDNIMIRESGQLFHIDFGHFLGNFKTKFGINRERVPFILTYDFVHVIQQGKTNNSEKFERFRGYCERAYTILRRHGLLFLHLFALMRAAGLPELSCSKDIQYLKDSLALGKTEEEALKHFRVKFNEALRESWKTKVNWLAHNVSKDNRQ
As to the kind of experiment: Inhibition of PIK3CD (unknown origin) assessed as residual activity at 1000 nM by KINOMEscan analysis relative to control.

The species entered for assay [7] is Homo sapiens. As to the kind of experiment: Inhibition of PIP5K1C (unknown origin) assessed as residual activity at 1000 nM by KINOMEscan analysis relative to control.

Chain of Calcium/calmodulin-dependent protein kinase type 1D (Homo sapiens) (Q8IU85 whole entry, looked up): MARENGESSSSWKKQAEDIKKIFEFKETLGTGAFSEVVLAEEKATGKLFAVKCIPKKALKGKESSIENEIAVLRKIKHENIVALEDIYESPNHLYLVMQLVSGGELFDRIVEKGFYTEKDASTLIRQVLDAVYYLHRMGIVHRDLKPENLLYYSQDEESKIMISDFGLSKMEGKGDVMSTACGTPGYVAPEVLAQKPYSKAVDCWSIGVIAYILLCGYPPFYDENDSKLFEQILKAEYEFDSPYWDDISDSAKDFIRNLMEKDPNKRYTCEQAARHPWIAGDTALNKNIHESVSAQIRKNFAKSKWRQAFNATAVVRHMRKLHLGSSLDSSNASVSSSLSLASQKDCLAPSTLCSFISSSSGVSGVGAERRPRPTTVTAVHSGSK

In the case of `COc1cc2nc(C)nc(N[C@H](C)c3cccc(-c4cn[nH]c4)c3)c2cc1OC`, the Activity in assay [1] is 68%; in assay [2] it was 87%; in assay [3], 98%; in assay [4] it was 95%; in assay [5], 95%; in assay [6], 96%. Also, the Activity in assay [7] turned out to be 75%.
`COc1cc2ncnc(N[C@H](C)c3cccc4ccccc34)c2cc1OC`: the Activity turned out to be 81% in assay [1]; 84% in assay [2]; 100% in assay [3]; 100% in assay [4]; 100% in assay [5]; 68% in assay [6]. Moreover, the Activity in assay [7] is 82%.
